Columns and labels:
[1] = tested on: morningglory; test: Test A preemergence; type: in vivo, Ipomoea spp.; conditions: Ipomoea, pre-emergence, 240 h, 0 to 100 scale (0 no effect, 100 complete control), read-out: Plant response rating, Morningglory; for pest or weed control at 125 g/ha: 125 g ai/ha; for pest or weed control at 500 g/ha: 500 g ai/ha, approx. 10 d
In short: (§1)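 Pre- and postemergence spray tests in a loam soil–sand mixture: seeded soil received a directed spray, while established seedlings 2–10 cm high at the one- to two-leaf stage were treated over the top. Compounds were carried in non-phytotoxic solvent with surfactant.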

[2] = tested on: wheat; test: Test A preemergence; type: in vivo, Triticum aestivum; conditions: Triticum aestivum, pre-emergence, 240 h, 0 to 100 scale (0 no effect, 100 complete control), read-out: Plant response rating, Wheat; for plant injury at 125 g/ha: 125 g ai/ha; for plant injury at 500 g/ha: 500 g ai/ha, approx. 10 d
In short: as §1

[3] = tested on: ragweed; test: Test A postemergence; type: in vivo, Ambrosia elatior; conditions: 0 to 100 scale (0 no effect, 100 complete control), approx. 10 d
Text: (§2) Seeds of plant species selected from barnyardgrass (Echinochloa crus-galli), crabgrass, large (large crabgrass, Digitaria sanguinalis), kochia (Kochia scoparia), ragweed (common ragweed, Ambrosia elatior), foxtail, giant (giant foxtail, Setaria faberii), morningglory (Ipomoea spp.), pigweed (Amaranthus retroflexus), velvetleaf (Abutilon theophrasti), ryegrass, Italian (Italian ryegrass, Lolium multiflorum), wheat (Triticum aestivum), and corn (Zea mays) were planted into a blend of loam soil and sand and treated preemergence with a directed soil spray using test chemicals formulated in a non-phytotoxic solvent mixture which included a surfactant.
(§3) At the same time, plants selected from these crop and weed species and also blackgrass (Alopecurus myosuroides), and galium (catchweed bedstraw, Galium aparine), were planted in pots containing the same blend of loam soil and sand and treated with postemergence applications of test chemicals formulated in the same manner. Plants ranged in height from 2 to 10 cm and were in the one- to two-leaf stage for the postemergence treatment. Treated plants and untreated controls were maintained in a greenhouse for approximately 10 d, after which time all treated plants were compared to untreated controls and visually evaluated for injury. Plant response ratings, summarized in Table A, are based on a 0 to 100 scale where 0 is no effect and 100 is complete control. A dash (-) response means no test result.

[4] = tested on: ragweed; test: Test A preemergence; type: in vivo, Ambrosia elatior; conditions: 0 to 100 scale (0 no effect, 100 complete control)
Text: as §2, §3

[5] = tested on: ryegrass, Italian; test: Test A preemergence; type: in vivo, Lolium multiflorum; conditions: 0 to 100 scale (0 no effect, 100 complete control)
Text: as §2, §3

[6] = tested on: bromegrass, down; test: Test D preemergence; type: in vivo, Bromus tectorum; conditions: scale 0 to 100
Text: (§4) Seeds of plant species selected from bluegrass (annual bluegrass, Poa annua), blackgrass (Alopecurus myosuroides), canarygrass (Phalaris minor), chickweed (common chickweed, Stellaria media), galium (catchweed bedstraw, Galium aparine), bromegrass, down (downy bromegrass, Bromus tectorum), Russian thistle (Salsola kali), field poppy (Papaver rhoeas), field violet (Viola arvensis), foxtail, green (green foxtail, Setaria viridis), deadnettle (henbit deadnettle, Lamium amplexicaule), ryegrass, Ital. (Italian ryegrass, Lolium multiflorum), kochia (Kochia scoparia), lambsquarters (Chenopodium album), oilseed rape (Brassica napus), pigweed (Amaranthus retroflexus), chamomile (scentless chamomile, Matricaria inodora), speedwell (bird's-eye speedwell, Veronica persica), barley, spring (spring barley, Hordeum vulgare), wheat, spring (spring wheat, Triticum aestivum), buckwheat, wild (wild buckwheat, Polygonum convolvulus), wild mustard (Sinapis arvensis), oat, wild (wild oat, Avena fatua), radish, wild (wild radish, Raphanus raphanistrum), […]), barley, winter (winter barley, Hordeum vulgare), and wheat, winter (winter wheat, Triticum aestivum) were planted into a silt loam soil and treated preemergence with test chemicals formulated in a non-phytotoxic solvent mixture which included a surfactant. At the same time, these species were planted in pots containing Sunshine Redi-Earth® planting medium comprising spaghnum peat moss, vermiculite, starter nutrients and dolomitic limestone and treated with postemergence applications of the test chemicals formulated in the same manner. Plants ranged in height from 2 to 18 cm (1- to 4-leaf stage). Treated plants and controls were maintained in a controlled growth environment for 14 to 21 d after which time all species were compared to controls and visually evaluated. […] A dash (-) response means no test result.

[7] = tested on: blackgrass; test: Test D preemergence; type: in vivo, Alopecurus myosuroides; conditions: scale 0 to 100
Text: as §4

[8] = tested on: galium; test: Test D preemergence; type: in vivo, Galium aparine; conditions: scale 0 to 100
Text: as §4

[9] = tested on: kochia; test: Test D postemergence; type: in vivo, Kochia scoparia; conditions: scale 0 to 100
Text: as §4

[10] = tested on: foxtail, green; test: Test D postemergence; type: in vivo, Setaria viridis; conditions: scale 0 to 100
Text: as §4

[11] = tested on: bluegrass; test: Test D preemergence; type: in vivo, Poa annua; conditions: scale 0 to 100
Text: as §4

[12] = tested on: oilseed rape; test: Test D postemergence; type: in vivo, Brassica napus; conditions: scale 0 to 100
Text: as §4

[13] = tested on: wild mustard; test: Test D postemergence; type: in vivo, Sinapis arvensis; conditions: scale 0 to 100
Text: as §4

[14] = tested on: foxtail, green; test: Test D preemergence; type: in vivo, Setaria viridis; conditions: scale 0 to 100
Text: as §4

`CCn1nc(-c2ccc(F)cc2)nc1C(=O)c1ccnc(C(F)(F)F)c1` [Compound 19, [1-ethyl-3-(4-fluorophenyl)-1H-1,2,4-triazol-5-yl][2-(trifluoromethyl)-4-pyridinyl]methanone] was tested, and the pest or weed control at 125 g/ha [1] was 0%, the pest or weed control at 500 g/ha [1] was 0% and the plant injury at 125 g/ha [2] was 0%. The plant injury at 500 g/ha [2] was 0%.

In the case of `COc1nc(-c2ccc(F)cc2)nn1Cc1ccnc(C(F)(F)F)c1` [Compound 9, 4-[[3-(4-fluorophenyl)-5-methoxy-1H-1,2,4-triazol-1-yl]methyl]-2-(trifluoromethyl)pyridine], the pest or weed control at 125 g/ha [1] is reported as 10%, the pest or weed control at 500 g/ha [1] is reported as 90% and the plant injury at 125 g/ha [2] is reported as 0%. The plant injury at 500 g/ha [2] was 50%.

In the case of `CCOc1nc(-c2ccc(Cl)cc2)nn1Cc1ccnc(C(F)(F)F)c1` [Compound 26], the “Plant response rating, Ragweed” value ([3]; 31 g ai/ha) is reported as 30, the “Plant response rating, Ragweed” value ([3]; 125 g ai/ha) is reported as 50 and the “Plant response rating, Ragweed” value ([4]; 31 g ai/ha) is reported as 60. The “Plant response rating, Ragweed” value ([4]; 125 g ai/ha) was 90, the “Plant response rating, Ryegrass, Italian” value ([5]; 31 g ai/ha) was 40 and the “Plant response rating, Ryegrass, Italian” value ([5]; 125 g ai/ha) was 100.

For `CCCOc1nc(-c2ccccc2)nn1Cc1ccnc(C(F)(F)F)c1` [Compound 33], the “Plant response rating, Ragweed” value ([3]; 125 g ai/ha) was 30, the “Plant response rating, Ragweed” value ([3]; 500 g ai/ha) was 50 and the “Plant response rating, Ragweed” value ([4]; 125 g ai/ha) was 20. The “Plant response rating, Ragweed” value ([4]; 500 g ai/ha) was 30, the “Plant response rating, Ryegrass, Italian” value ([5]; 125 g ai/ha) was 30 and the “Plant response rating, Ryegrass, Italian” value ([5]; 500 g ai/ha) was 60.

In the case of `COc1nc(-c2ccc(C(F)(F)F)cc2)nn1Cc1ccnc(C(F)(F)F)c1` [Compound 25], the “Plant response rating, Ragweed” value ([3]; 31 g ai/ha) is reported as 20, the “Plant response rating, Ragweed” value ([3]; 125 g ai/ha) is reported as 30 and the “Plant response rating, Ragweed” value ([4]; 31 g ai/ha) is reported as 10. For the same molecule, the “Plant response rating, Ragweed” value ([4]; 125 g ai/ha) was 20, the “Plant response rating, Ryegrass, Italian” value ([5]; 31 g ai/ha) was 0 and the “Plant response rating, Ryegrass, Italian” value ([5]; 125 g ai/ha) was 50.

`CCCc1nc(-c2ccc(F)cc2)nn1Cc1ccnc(C(F)(F)F)c1` [Compound 6, 4-[[3-(4-fluorophenyl)-5-propyl-1H-1,2,4-triazol-1-yl]methyl]-2-(trifluoromethyl)pyridine] showed a pest or weed control at 125 g/ha [1] of 50%, a pest or weed control at 500 g/ha [1] of 100% and a plant injury at 125 g/ha [2] of 10%. The plant injury at 500 g/ha [2] was 60%.

`CCn1nc(-c2ccc(F)cc2)nc1C(O)c1ccnc(C(F)(F)F)c1` (stereo not drawn) [Compound 15, α-[1-Ethyl-3-(4-fluorophenyl)-1H-1,2,4-triazol-5-yl]-2-(trifluoromethyl)-4-pyridinemethanol] was tested, and the pest or weed control at 125 g/ha [1] was 0%, the pest or weed control at 500 g/ha [1] was 0% and the plant injury at 125 g/ha [2] was 0%. For the same molecule, the plant injury at 500 g/ha [2] was 0%.

`COc1nc(-c2ccccc2)nn1Cc1ccnc(C(F)(F)F)c1` [Compound 32] was tested, and the “Plant response rating, Ragweed” value ([3]; 125 g ai/ha) was 30, the “Plant response rating, Ragweed” value ([3]; 500 g ai/ha) was 70 and the “Plant response rating, Ragweed” value ([4]; 125 g ai/ha) was 0. The “Plant response rating, Ragweed” value ([4]; 500 g ai/ha) was 40, the “Plant response rating, Ryegrass, Italian” value ([5]; 125 g ai/ha) was 40 and the “Plant response rating, Ryegrass, Italian” value ([5]; 500 g ai/ha) was 60.

`Cn1nc(-c2ccc(F)cc2)nc1Oc1cccc(C(F)(F)F)c1` [Compound 5, 3-(4-fluorophenyl)-1-methyl-5-[3-(trifluoromethyl)phenoxy]-1H-1,2,4-triazole] was tested, and the pest or weed control at 125 g/ha [1] was 0%, the pest or weed control at 500 g/ha [1] was 0% and the plant injury at 125 g/ha [2] was 0%. For the same molecule, the plant injury at 500 g/ha [2] was 0%.

For `CCCn1nc(-c2ccc(F)cc2)nc1Cc1ccnc(C(F)(F)F)c1` [Compound 17, 4-[[3-(4-fluorophenyl)-1-propyl-1H-1,2,4-triazol-5-yl]methyl]-2-(trifluoromethyl)pyridine], the pest or weed control at 125 g/ha [1] was 70%, the pest or weed control at 500 g/ha [1] was 90% and the plant injury at 125 g/ha [2] was 30%. The plant injury at 500 g/ha [2] was 70%.

`Cn1nc(-c2ccc(F)cc2)nc1C(O)c1ccnc(C(F)(F)F)c1` (stereo not drawn) [Compound 14, α-[3-(4-fluorophenyl)-1-methyl-1H-1,2,4-triazol-5-yl]-2-(trifluoromethyl)-4-pyridinemethanol] showed a pest or weed control at 125 g/ha [1] of 0%, a pest or weed control at 500 g/ha [1] of 0% and a plant injury at 125 g/ha [2] of 0%. It also gave a plant injury at 500 g/ha [2] of 0%.

For `CCc1nc(-c2ccc(C(F)(F)F)cc2)nn1Cc1ccnc(C(F)(F)F)c1` [Compound 1, 4-[[5-ethyl-3-[4-(trifluoromethyl)phenyl]-1H-1,2,4-triazol-1-yl]methyl]-2-(trifluoromethyl)pyridine], the “Plant response rating: Bromegrass, Down” value ([6]; 31 g ai/ha) was 0, the “Plant response rating: Bromegrass, Down” value ([6]; 62 g ai/ha) was 0 and the “Plant response rating: Bromegrass, Down” value ([6]; 125 g ai/ha) was 10. The “Plant response rating: Bromegrass, Down” value ([6]; 250 g ai/ha) was 10, the “Plant response rating: Blackgrass” value ([7]; 31 g ai/ha) was 15 and the “Plant response rating: Blackgrass” value ([7]; 62 g ai/ha) was 35. The “Plant response rating: Blackgrass” value ([7]; 125 g ai/ha) was 35, the “Plant response rating: Blackgrass” value ([7]; 250 g ai/ha) was 65 and the “Plant response rating: Galium” value ([8]; 125 g ai/ha) was 60. For the same molecule, the “Plant response rating: Galium” value ([8]; 250 g ai/ha) was 100, the “Plant response rating: Kochia” value ([9]; 31 g ai/ha) was 65 and the “Plant response rating: Kochia” value ([9]; 62 g ai/ha) was 75. For the same molecule, the “Plant response rating: Kochia” value ([9]; 125 g ai/ha) was 80, the “Plant response rating: Kochia” value ([9]; 250 g ai/ha) was 80 and the “Plant response rating: Foxtail, Green” value ([10]; 31 g ai/ha) was 25. For the same molecule, the “Plant response rating: Foxtail, Green” value ([10]; 62 g ai/ha) was 45, the “Plant response rating: Foxtail, Green” value ([10]; 125 g ai/ha) was 65 and the “Plant response rating: Foxtail, Green” value ([10]; 250 g ai/ha) was 75. For the same molecule, the pest or weed control at 125 g/ha [1] was 30%, the pest or weed control at 500 g/ha [1] was 80% and the “Plant response rating: Bluegrass” value ([11]; 31 g ai/ha) was 10. The “Plant response rating: Bluegrass” value ([11]; 62 g ai/ha) was 35, the “Plant response rating: Bluegrass” value ([11]; 125 g ai/ha) was 60 and the “Plant response rating: Bluegrass” value ([11]; 250 g ai/ha) was 100. The plant injury at 125 g/ha [2] was 20%, the plant injury at 500 g/ha [2] was 30% and the “Plant response rating: Oilseed Rape” value ([12]; 31 g ai/ha) was 70. The “Plant response rating: Oilseed Rape” value ([12]; 62 g ai/ha) was 80, the “Plant response rating: Oilseed Rape” value ([12]; 125 g ai/ha) was 100 and the “Plant response rating: Oilseed Rape” value ([12]; 250 g ai/ha) was 100. For the same molecule, the “Plant response rating: Mustard, Wild” value ([13]; 31 g ai/ha) was 100, the “Plant response rating: Mustard, Wild” value ([13]; 62 g ai/ha) was 100 and the “Plant response rating: Mustard, Wild” value ([13]; 125 g ai/ha) was 100. For the same molecule, the “Plant response rating: Mustard, Wild” value ([13]; 250 g ai/ha) was 100, the “Plant response rating: Foxtail, Green” value ([14]; 62 g ai/ha) was 100 and the “Plant response rating: Foxtail, Green” value ([14]; 125 g ai/ha) was 100. For the same molecule, the “Plant response rating: Foxtail, Green” value ([14]; 250 g ai/ha) was 100.

In the case of `CS(=O)(=O)c1nc(-c2ccc(F)cc2)nn1Cc1ccnc(C(F)(F)F)c1` [Compound 29, 4-[[3-(4-fluorophenyl)-5-(methylsulfonyl)-1H-1,2,4-triazole-1-yl]methyl]-2-(trifluoromethyl)pyridine], the pest or weed control at 125 g/ha [1] is reported as 0%, the pest or weed control at 500 g/ha [1] is reported as 0% and the plant injury at 125 g/ha [2] is reported as 0%. It also gave a plant injury at 500 g/ha [2] of 0%.
